# Assay results published in paper PMC3199943, “Screening the MayBridge Rule of 3 Fragment Library for Compounds That Interact with the Trypanosoma brucei myo-Inositol-3-Phosphate Synthase and/or Show Trypanocidal Activity” (Molecular Biology International, 2011).
# Biological target: T1, TbINO1 (Trypanosoma brucei brucei, UniProt Q5QQ46)
# T1 sequence (Q5QQ46 1-528): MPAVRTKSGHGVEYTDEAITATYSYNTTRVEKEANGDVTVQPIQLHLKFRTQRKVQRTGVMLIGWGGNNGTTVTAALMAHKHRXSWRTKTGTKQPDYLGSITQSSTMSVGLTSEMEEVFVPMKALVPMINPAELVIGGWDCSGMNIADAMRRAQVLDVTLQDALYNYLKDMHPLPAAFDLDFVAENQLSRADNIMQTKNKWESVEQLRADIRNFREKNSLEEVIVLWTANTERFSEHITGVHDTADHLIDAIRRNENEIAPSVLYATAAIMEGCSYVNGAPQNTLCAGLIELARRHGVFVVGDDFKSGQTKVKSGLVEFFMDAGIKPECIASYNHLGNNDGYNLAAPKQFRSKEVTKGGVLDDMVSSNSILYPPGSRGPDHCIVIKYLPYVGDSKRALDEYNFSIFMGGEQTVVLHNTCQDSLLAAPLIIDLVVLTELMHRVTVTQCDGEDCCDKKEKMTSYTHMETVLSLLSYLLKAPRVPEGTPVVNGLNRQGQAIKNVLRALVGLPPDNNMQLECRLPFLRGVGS
# Assay: biochemical
# Assay type: binding
# Conditions: Supplementary Table 1; compound 1mM; mean ± SD from Boltzman curve fitting
row,Compound,Tb Ino1 Tm Shift [˚C] [°C]
1,"ON=C1CCCc2ccccc21 [compound 279, 1,2,3,4‐tetrahydronaphthalen‐1‐one oxime]",0.76 ± 0.08
2,"Nc1ccc2c(c1)CCCC2=O [compound 280, 6‐amino‐1,2,3,4‐tetrahydronaphthalen‐1‐one]",0.82 ± 0.09
3,"CC(=O)Nc1cc(C)ccc1O [compound 303, N1‐(2‐hydroxy‐5‐methylphenyl)acetamide]",0.15 ± 0.07
4,"CNCc1ccc2c(c1)OCO2 [compound 305, N‐(1,3‐benzodioxol‐5‐ylmethyl)‐N‐methylamine]",1.12 ± 0.05
5,"OCC1CNc2ccccc2O1 (stereo not shown) [compound 307, 3,4‐dihydro‐2H‐1,4‐benzoxazin‐2‐ylmethanol]",0.56 ± 0.06
6,"CN1N=C(C(F)(F)F)CC1=O [compound 315, 1‐methyl‐3‐(trifluoromethyl)‐4,5‐dihydro‐1H‐pyrazol‐5‐one]",0.09 ± 0.08
7,"N#Cc1scc2c1OCCO2 [compound 327, 2,3‐dihydrothieno[3,4‐b][1,4]dioxine‐5‐carbonitrile]",0.12 ± 0.06
8,"Cl.c1ccc2c(c1)CCNC2 [compound 343, 1,2,3,4‐tetrahydroisoquinoline hydrochloride]",0.37 ± 0.06
9,"CC1CCN(CC(C)(C)N)CC1 [compound 349, 2‐methyl‐1‐(4‐methylpiperidino)‐2‐propanamine]",0.53 ± 0.06
10,"CC(=O)c1cc(F)cc(F)c1O [compound 360, 1‐(3,5‐difluoro‐2‐hydroxyphenyl)ethan‐1‐one]",1.29 ± 0.05

# Same assay, conditions: Supplementary Table 1; compound 1mM; mean ± SD from Boltzman curve fitting; read-out: Tb Ino1 Tm Shift [˚C]
row,Compound,ΔTm at 1000 µM [°C]
1,"O=C(O)c1ccc2cc[nH]c2c1 [compound 271, 1H‐indole‐6‐carboxylic acid]",0.06 ± 0.08
2,"COc1ccc(OC)c(CN)c1 [compound 329, 2,5‐dimethoxybenzylamine]",0.97 ± 0.05
3,"O=C(O)c1ccc2ccccc2n1 [compound 369, 2‐quinolinecarboxylic acid]",0.1 ± 0.67

# Same assay, conditions: read-out: Tb Ino1 Tm Shift [˚C]
row,Compound,ΔTm at 1000 µM [°C]
1,"O=C(O)c1c[nH]c2ccccc12 [compound 273, 1H‐indole‐3‐carboxylic acid]",0.01 ± 0.05
2,"Fc1ccc(-n2cccc2)cc1 [compound 276, 1‐(4‐fluorophenyl)‐1H‐pyrrole]",0.75 ± 0.08
3,"OCCc1c[nH]c2ccccc12 [compound 277, 2‐(1H‐indol‐3‐yl)ethan‐1‐ol]",1.12 ± 0.06
4,"Cn1c(CN)nc2ccccc21 [compound 281, (1‐methyl‐1H‐benzimidazol‐2‐yl)methylamine]",0.7 ± 0.04
5,"Cn1nc2ccccc2c1CO [compound 285, (2‐methyl‐2H‐indazol‐3‐yl)methanol]",0.29 ± 0.07
6,"CCCc1ccc(C(C)=O)cc1 [compound 288, 1‐(4‐propylphenyl)ethan‐1‐one]",0.22 ± 0.08

# Tested on: HeLa cells
# Assay: cells
# Conditions: Homo sapiens, HeLa, 65 h, read-out: HeLa Cells Alamar Blue
# Procedure, shortened: (§1)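 Viability by Alamar Blue (5 h) after ~65 h drug treatment; seeding density 2 × 10^4 cells/well in DMEM supplemented with 10% FCS and 2 mM L-Glutamine.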
row,Compound,viability at 500 µM [%]
1,"O=C(O)c1c[nH]c2ccccc12 [compound 273, 1H‐indole‐3‐carboxylic acid]",85.4 ± 12.2
2,"Fc1ccc(-n2cccc2)cc1 [compound 276, 1‐(4‐fluorophenyl)‐1H‐pyrrole]",104 ± 16.6
3,"OCCc1c[nH]c2ccccc12 [compound 277, 2‐(1H‐indol‐3‐yl)ethan‐1‐ol]",66.3 ± 1.7
4,"Cn1c(CN)nc2ccccc21 [compound 281, (1‐methyl‐1H‐benzimidazol‐2‐yl)methylamine]",47.6 ± 19.8
5,"Cn1nc2ccccc2c1CO [compound 285, (2‐methyl‐2H‐indazol‐3‐yl)methanol]",73.4 ± 10.6
6,"CCCc1ccc(C(C)=O)cc1 [compound 288, 1‐(4‐propylphenyl)ethan‐1‐one]",72.2 ± 17.1
7,"COc1ccc(OC)c(CN)c1 [compound 329, 2,5‐dimethoxybenzylamine]",26 ± 9

# Same assay, conditions: Homo sapiens, HeLa, 65 h, read-out: HeLa Cells Alamar Blue, Supplementary Table 1; compound 0.5 mM; percentage of controls; mean ± SD (n=3) or SE (n=2)
row,Compound,viability at 500 µM [%]
1,"O=C(O)c1ccc2cc[nH]c2c1 [compound 271, 1H‐indole‐6‐carboxylic acid]",111 ± 16.2
2,"O=C(O)c1ccc2ccccc2n1 [compound 369, 2‐quinolinecarboxylic acid]",81.3 ± 14.1

# Same assay, conditions: Homo sapiens, HeLa, read-out: HeLa ED50
row,Compound,CC50 [µM]
1,"Cn1c(CN)nc2ccccc21 [compound 281, (1‐methyl‐1H‐benzimidazol‐2‐yl)methylamine]",659 ± 65

# Same assay, conditions: Supplementary Table 1; compound 0.5 mM; percentage of controls; mean ± SD (n=3) or SE (n=2)
row,Compound,HeLa Cells Alamar Blue
1,"ON=C1CCCc2ccccc21 [compound 279, 1,2,3,4‐tetrahydronaphthalen‐1‐one oxime]",19.9 ± 19.7 percentage of controls
2,"Nc1ccc2c(c1)CCCC2=O [compound 280, 6‐amino‐1,2,3,4‐tetrahydronaphthalen‐1‐one]",40.5 ± 19.2 percentage of controls
3,"CC(=O)Nc1cc(C)ccc1O [compound 303, N1‐(2‐hydroxy‐5‐methylphenyl)acetamide]",95.3 ± 9.8 percentage of controls
4,"CNCc1ccc2c(c1)OCO2 [compound 305, N‐(1,3‐benzodioxol‐5‐ylmethyl)‐N‐methylamine]",56.8 ± 29.4 percentage of controls
5,"OCC1CNc2ccccc2O1 (stereo not shown) [compound 307, 3,4‐dihydro‐2H‐1,4‐benzoxazin‐2‐ylmethanol]",81 ± 17.2 percentage of controls
6,"CN1N=C(C(F)(F)F)CC1=O [compound 315, 1‐methyl‐3‐(trifluoromethyl)‐4,5‐dihydro‐1H‐pyrazol‐5‐one]",109.2 ± 4.4 percentage of controls
7,"N#Cc1scc2c1OCCO2 [compound 327, 2,3‐dihydrothieno[3,4‐b][1,4]dioxine‐5‐carbonitrile]",115.5 ± 14.4 percentage of controls
8,"Cl.c1ccc2c(c1)CCNC2 [compound 343, 1,2,3,4‐tetrahydroisoquinoline hydrochloride]",83.5 ± 7.8 percentage of controls
9,"CC1CCN(CC(C)(C)N)CC1 [compound 349, 2‐methyl‐1‐(4‐methylpiperidino)‐2‐propanamine]",108.4 ± 7.2 percentage of controls
10,"CC(=O)c1cc(F)cc(F)c1O [compound 360, 1‐(3,5‐difluoro‐2‐hydroxyphenyl)ethan‐1‐one]",103.5 ± 10 percentage of controls

# Tested on: A549 cells
# Assay: Cytotoxicity against A549 cells, Alamar Blue
# Assay type: cell-based
# Conditions: Homo sapiens, A549, 65 h; Supplementary Table 1; compound 0.5 mM; percentage of controls (n=1)
# Procedure, shortened: as §1
row,Compound,viability at 500 µM [%]
1,"O=C(O)c1ccc2cc[nH]c2c1 [compound 271, 1H‐indole‐6‐carboxylic acid]",75.6
2,"O=C(O)c1c[nH]c2ccccc12 [compound 273, 1H‐indole‐3‐carboxylic acid]",61.8
3,"Fc1ccc(-n2cccc2)cc1 [compound 276, 1‐(4‐fluorophenyl)‐1H‐pyrrole]",70.2
4,"OCCc1c[nH]c2ccccc12 [compound 277, 2‐(1H‐indol‐3‐yl)ethan‐1‐ol]",59.9
5,"Cn1c(CN)nc2ccccc21 [compound 281, (1‐methyl‐1H‐benzimidazol‐2‐yl)methylamine]",53.8
6,"Cn1nc2ccccc2c1CO [compound 285, (2‐methyl‐2H‐indazol‐3‐yl)methanol]",67.6
7,"CCCc1ccc(C(C)=O)cc1 [compound 288, 1‐(4‐propylphenyl)ethan‐1‐one]",90.6
8,"COc1ccc(OC)c(CN)c1 [compound 329, 2,5‐dimethoxybenzylamine]",156
9,"O=C(O)c1ccc2ccccc2n1 [compound 369, 2‐quinolinecarboxylic acid]",152

# Same assay, conditions: Supplementary Table 1; compound 0.5 mM; percentage of controls (n=1)
row,Compound,A549 Cells Alamar Blue
1,"ON=C1CCCc2ccccc21 [compound 279, 1,2,3,4‐tetrahydronaphthalen‐1‐one oxime]",16.9 percentage of controls
2,"Nc1ccc2c(c1)CCCC2=O [compound 280, 6‐amino‐1,2,3,4‐tetrahydronaphthalen‐1‐one]",87.3 percentage of controls
3,"CC(=O)Nc1cc(C)ccc1O [compound 303, N1‐(2‐hydroxy‐5‐methylphenyl)acetamide]",45 percentage of controls
4,"CNCc1ccc2c(c1)OCO2 [compound 305, N‐(1,3‐benzodioxol‐5‐ylmethyl)‐N‐methylamine]",58.3 percentage of controls
5,"OCC1CNc2ccccc2O1 (stereo not shown) [compound 307, 3,4‐dihydro‐2H‐1,4‐benzoxazin‐2‐ylmethanol]",70.8 percentage of controls
6,"CN1N=C(C(F)(F)F)CC1=O [compound 315, 1‐methyl‐3‐(trifluoromethyl)‐4,5‐dihydro‐1H‐pyrazol‐5‐one]",88.3 percentage of controls
7,"N#Cc1scc2c1OCCO2 [compound 327, 2,3‐dihydrothieno[3,4‐b][1,4]dioxine‐5‐carbonitrile]",121.1 percentage of controls
8,"Cl.c1ccc2c(c1)CCNC2 [compound 343, 1,2,3,4‐tetrahydroisoquinoline hydrochloride]",86.3 percentage of controls
9,"CC1CCN(CC(C)(C)N)CC1 [compound 349, 2‐methyl‐1‐(4‐methylpiperidino)‐2‐propanamine]",144.1 percentage of controls
10,"CC(=O)c1cc(F)cc(F)c1O [compound 360, 1‐(3,5‐difluoro‐2‐hydroxyphenyl)ethan‐1‐one]",149.7 percentage of controls
